The assay has as its system venous thrombosis. Briefly: venous thrombosis test in the rat (venous stasis under hypercoagulation with factor Xa, Wessler technique). The following applies: Wistar male rats. In kind it is in vivo. On the procedure: The antithrombotic activity of the compounds according to the invention was studied in vivo in the rat by means of a test that reproduces a venous thrombosis.
The venous thrombosis was induced according to the protocol described in Thromb. Haemost., 1992, 67(1), 176-179. The intravenous or oral activity was studied according to the following operating protocol:
The experiments are performed on non-fasted Wistar male rats weighing 250 to 280 g, divided into groups of 10 animals each. The test products are administered either orally (tubage) dissolved or suspended in isotonic solution, or by intravenous injection dissolved in isotonic solution or in a PEG 400/water mixture. The concentration of the compounds is calculated so that the amount of solution absorbed is 2 ml/kg by oral administration and 1 ml/kg by intravenous injection. A thrombosis is induced at a time T (0.5, 2, 4 or 8 hours) after administration of the product, and the thrombus formed is removed and weighed. To induce this thrombosis, a venous stasis is created under hypercoagulation according to the technique described by WESSLER (J Applied Physiol., 1959, 943-946), the hypercoagulating agent used being a solution of activated factor X (Xa) having a concentration of 7.5 nKat/kg, supplied by Biogenic (Montpellier). The venous stasis is effected exactly 15 seconds after injection of the hypercoagulating agent. The activity of the test compounds was checked at different doses after they had been administered either orally (p.o.) or intravenously (i.v.). The thrombosis was induced 2 hours or 4 hours after oral administration of the compound and 2 hours after intravenous administration of the compound.

Where [1] appears, read: Rattus norvegicus, po, 4 h, oral, thrombosis induced 4 h after administration, read-out: Activity % (percentage inhibition of thrombus formation).
Where [2] appears, read: Rattus norvegicus, iv, 2 h, intravenous, thrombosis induced 2 h after administration, read-out: Activity % (percentage inhibition of thrombus formation).
Setting [3] is: intravenous, dose 2.5 mg/kg, thrombosis induced 2 h after administration.
Setting [4] is: Rattus norvegicus, po, 2 h, oral, thrombosis induced 2 h after administration, read-out: Activity % (percentage inhibition of thrombus formation).

Molecules are shown by their SMILES. Structures can show the parent of a compound that is named as a salt. Where two headings read alike, the source gives them in different places.

With `O[C@@H]1[C@@H](O)[C@H](Oc2cccnc2)SC[C@H]1O` [Example 2, 3-Pyridinyl 5-Thio-β-D-Xylopyranoside], under “Rattus norvegicus, iv, 2 h, intravenous, dose 2.5 mg/kg, thrombosis induced 2 h after administration, read-out: Activity % (percentage inhibition of thrombus formation)”, the inhibition in vivo at 2.5 mg/kg was 72%. The inhibition in vivo at 1.5 mg/kg (Rattus norvegicus, po, 4 h, oral, dose 1.5 mg/kg, thrombosis induced 4 h after administration, read-out: Activity % (percentage inhibition of thrombus formation)) came to 67%. In addition, under setting [1], the inhibition in vivo at 3 mg/kg was 91%.

As to `CC(=O)O[C@@H]1[C@@H](OC(C)=O)[C@H](OC(C)=O)CS[C@H]1Oc1cccnc1` [Example 1A, 3-Pyridinyl 2,3,4-tri-O-acetyl-5-thio-β-D-Xylopyranoside Methanesulfonate], the inhibition in vivo at 4 mg/kg under setting [2] turned out to be 83%. The inhibition in vivo at 6 mg/kg under setting [1] is 51%.

`O[C@@H]1[C@@H](O)[C@H](Oc2cncc(Cl)c2)SC[C@H]1O` [Example 18, 5-Chloro-3-Pyridinyl 5-Thio-β-D-Xylopyranoside]: the inhibition in vivo at 3 mg/kg under setting [1] was found to be 46%.

Consider `COC(=O)O[C@@H]1[C@@H](OC(=O)OC)[C@H](OC(=O)OC)CS[C@H]1Oc1cccnc1` [Example 31A, 3-Pyridinyl 2,3,4-Tris-O-(Methoxycarbonyl)-5-Thio-β-D-Xylopyranoside Hydrochloride], for which, where the note is “Rattus norvegicus, po, 4 h, oral, dose 5.6 mg/kg, thrombosis induced 4 h after administration, read-out: Activity % (percentage inhibition of thrombus formation)”, the inhibition in vivo at 5.6 mg/kg came out at 63%.

With `CS(=O)(=O)O.O[C@@H]1[C@@H](O)[C@H](Oc2cccnc2)SC[C@H]1O` [Example 2A, 3-Pyridinyl 5-Thio-β-D-Xylopyranoside Methanesulfonate], under setting [2], the inhibition in vivo at 5 mg/kg came out at 94%. For the same molecule, for the setting “Rattus norvegicus, po, 2 h, oral, dose 4.2 mg/kg, thrombosis induced 2 h after administration, read-out: Activity % (percentage inhibition of thrombus formation)”, the inhibition in vivo at 4.2 mg/kg was 96%. The “Activity % (percentage inhibition of thrombus formation)” value under setting [3] turned out to be 68%.

Turning to `CCCC(=O)O[C@@H]1[C@@H](OC(=O)CCC)[C@H](OC(=O)CCC)CS[C@H]1Oc1cccnc1` [Example 93, 3-Pyridinyl 2,3,4-Tri-O-Butanoyl-5-Thio-β-D-Xylopyranoside], under setting [4], the inhibition in vivo at 6 mg/kg amounted to 81%.

For the molecule `Cl.O[C@@H]1[C@@H](O)[C@H](Oc2cccnc2)SC[C@H]1O` [Example 2C, 3-Pyridinyl 5-Thio-β-D-Xylopyranoside Hydrochloride], under setting [2], the inhibition in vivo at 4 mg/kg worked out at 95%. Also, under setting [1], the inhibition in vivo at 6 mg/kg came to 55%. In addition, the “Activity % (percentage inhibition of thrombus formation)” value under setting [3] is 72%.

Turning to `N#Cc1ncccc1O[C@@H]1SC[C@@H](O)[C@H](O)[C@H]1O` [Example 20, 2-Cyano-3-Pyridinyl 5-Thio-β-D-Xylopyranoside], the inhibition in vivo at 3 mg/kg under setting [1] was 50%.

Regarding `CC(=O)O[C@@H]1[C@@H](OC(C)=O)[C@H](OC(C)=O)CS[C@H]1Oc1cccnc1Cl` [Example 36, 2-Chloro-3-Pyridinyl 2,3,4-Tri-O-Acetyl-5-Thio-β-D-Xylopyranoside], the inhibition in vivo at 6 mg/kg under setting [4] is 91%.

Consider `O[C@@H]1[C@@H](O)[C@H](Oc2cccnc2Cl)SC[C@H]1O` [Example 37, 2-Chloro-3-Pyridinyl 5-Thio-β-D-Xylopyranoside], for which, under setting [4], the inhibition in vivo at 6 mg/kg was found to be 96%.

Regarding `O[C@@H]1[C@@H](O)[C@H](Oc2cncc(F)c2)SC[C@H]1O` [Example 49, 5-Fluoro-3-Pyridinyl 5-Thio-β-D-Xylopyranoside], the inhibition in vivo at 6 mg/kg under setting [4] is 90%.

For `O[C@@H]1[C@@H](O)[C@H](Oc2ccc(C(F)(F)F)nc2)SC[C@H]1O` [Example 41, 6-(Trifluoromethyl)-3-Pyridinyl 5-Thio-β-D-Xylopyranoside], the inhibition in vivo at 6 mg/kg under setting [4] stood at 97%.

In the case of `Cc1ncccc1O[C@@H]1SC[C@@H](O)[C@H](O)[C@H]1O` [Example 12, 2-Methyl-3-Pyridinyl 5-Thio-β-D-Xylopyranoside], the inhibition in vivo at 3 mg/kg under setting [1] worked out at 52%.

As to `COC(=O)O[C@@H]1[C@@H](OC(=O)OC)[C@H](OC(=O)OC)CS[C@H]1Oc1cccnc1` [Example 31B, 3-Pyridinyl 2,3,4-Tris-O-(Methoxycarbonyl)-5-Thio-β-D-Xylopyranoside Methanesulfonate], the inhibition in vivo at 5 mg/kg under setting [2] worked out at 88%. In addition, for the setting “Rattus norvegicus, po, 4 h, oral, dose 8 mg/kg, thrombosis induced 4 h after administration, read-out: Activity % (percentage inhibition of thrombus formation)”, the inhibition in vivo at 8 mg/kg stood at 94%.
